The compounds below were run against T1, PI3K α (Homo sapiens, UniProt P42336) (assay: In vitro IC50, PI3K α (p110α/p85α inhibition assay)). Settings: in vitro kinase assay; read-out: IC50(nM) PI3K α.
T1 construct: purchased Upstate
Assay type: biochemical
Protocol: (§1) IC50 values are measured using either a standard TLC assay for lipid kinase activity (described below) or a high-throughput membrane capture assay. Kinase reactions are performed by preparing a reaction mixture containing kinase, inhibitor (2% DMSO final concentration), buffer (25 mM HEPES, pH 7.4, 10 mM MgCl2), and freshly sonicated phosphatidylinositol (100 μg/ml). Reactions are initiated by the addition of ATP containing 10 μCi of γ-32P-ATP to a final concentration 10 or 100 μM and allowed to proceed for 5 minutes at room temperature. For TLC analysis, reactions are then terminated by the addition of 105 μl 1N HCl followed by 160 μl CHCl3:MeOH (1:1). The biphasic mixture is vortexed, briefly centrifuged, and the organic phase is transferred to a new tube using a gel loading pipette tip precoated with CHCl3. This extract is spotted on TLC plates and developed for 3-4 hours in a 65:35 solution of n-propanol:1M acetic acid. The TLC plates are then dried, exposed to a phosphorimager screen (Storm, Amersham), and quantitated.
(§2) Other commercial kits or systems for assaying PI3-K activities are available. The commercially available kits or systems can be used to screen for inhibitors and/or agonists of PI3-Ks including but not limited to PI 3-Kinase α, β, δ, and γ. An exemplary system is PI 3-Kinase (human) HTRF™ Assay from Upstate. […] Briefly, the assay is a time resolved FRET assay that indirectly measures PIP3 product formed by the activity of a PI3-K. The kinase reaction is performed in a microtitre plate (e.g., a 384 well microtitre plate). The total reaction volume is approximately 20 ul per well. In the first step, each well receives 2 ul of test compound in 20% dimethylsulphoxide resulting in a 2% DMSO final concentration. Next, approximately 14.5 ul of a kinase/PIP2 mixture (diluted in 1× reaction buffer) is added per well for a final concentration of 0.25-0.3 ug/ml kinase and 10 uM PIP2. The plate is sealed and incubated for 15 minutes at room temperature. To start the reaction, 3.5 ul of ATP (diluted in 1× reaction buffer) is added per well for a final concentration of 10 uM ATP. The plate is sealed and incubated for 1 hour at room temperature. The reaction is stopped by adding 5 ul of Stop Solution per well and then 5 ul of Detection Mix is added per well. The plate is sealed, incubated for 1 hour at room temperature, and then read on an appropriate plate reader. Data is analyzed and IC50s are generated using GraphPad Prism 5.

T1 sequence (P42336 whole entry): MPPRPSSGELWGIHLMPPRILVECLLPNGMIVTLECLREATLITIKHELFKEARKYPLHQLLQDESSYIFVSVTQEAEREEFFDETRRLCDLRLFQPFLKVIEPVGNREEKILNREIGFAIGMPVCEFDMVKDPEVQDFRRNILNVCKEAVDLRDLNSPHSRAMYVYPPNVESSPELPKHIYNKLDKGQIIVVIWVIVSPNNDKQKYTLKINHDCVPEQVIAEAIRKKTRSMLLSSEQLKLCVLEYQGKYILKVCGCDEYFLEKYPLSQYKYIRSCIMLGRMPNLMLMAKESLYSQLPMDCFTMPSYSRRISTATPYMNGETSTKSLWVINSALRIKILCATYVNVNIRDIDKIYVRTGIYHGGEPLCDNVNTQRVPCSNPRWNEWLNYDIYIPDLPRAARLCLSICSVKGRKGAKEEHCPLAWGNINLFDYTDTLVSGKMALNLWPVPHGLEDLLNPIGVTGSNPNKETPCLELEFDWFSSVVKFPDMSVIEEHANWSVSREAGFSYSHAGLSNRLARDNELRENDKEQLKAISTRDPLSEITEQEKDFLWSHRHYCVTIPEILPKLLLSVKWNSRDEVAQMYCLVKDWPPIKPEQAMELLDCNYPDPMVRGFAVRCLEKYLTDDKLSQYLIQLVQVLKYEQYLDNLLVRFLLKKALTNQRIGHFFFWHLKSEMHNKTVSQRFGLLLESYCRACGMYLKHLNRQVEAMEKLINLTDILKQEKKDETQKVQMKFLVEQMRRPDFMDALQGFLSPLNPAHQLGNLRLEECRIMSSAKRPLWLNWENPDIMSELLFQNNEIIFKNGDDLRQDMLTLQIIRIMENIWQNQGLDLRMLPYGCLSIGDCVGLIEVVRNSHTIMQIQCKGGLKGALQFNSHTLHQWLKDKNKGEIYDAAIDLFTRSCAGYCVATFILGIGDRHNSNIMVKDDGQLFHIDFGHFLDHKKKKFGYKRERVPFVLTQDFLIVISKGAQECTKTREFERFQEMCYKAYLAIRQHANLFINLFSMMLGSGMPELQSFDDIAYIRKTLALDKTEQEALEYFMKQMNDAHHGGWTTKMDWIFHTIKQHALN
T1 sequence (P27986 whole entry partner): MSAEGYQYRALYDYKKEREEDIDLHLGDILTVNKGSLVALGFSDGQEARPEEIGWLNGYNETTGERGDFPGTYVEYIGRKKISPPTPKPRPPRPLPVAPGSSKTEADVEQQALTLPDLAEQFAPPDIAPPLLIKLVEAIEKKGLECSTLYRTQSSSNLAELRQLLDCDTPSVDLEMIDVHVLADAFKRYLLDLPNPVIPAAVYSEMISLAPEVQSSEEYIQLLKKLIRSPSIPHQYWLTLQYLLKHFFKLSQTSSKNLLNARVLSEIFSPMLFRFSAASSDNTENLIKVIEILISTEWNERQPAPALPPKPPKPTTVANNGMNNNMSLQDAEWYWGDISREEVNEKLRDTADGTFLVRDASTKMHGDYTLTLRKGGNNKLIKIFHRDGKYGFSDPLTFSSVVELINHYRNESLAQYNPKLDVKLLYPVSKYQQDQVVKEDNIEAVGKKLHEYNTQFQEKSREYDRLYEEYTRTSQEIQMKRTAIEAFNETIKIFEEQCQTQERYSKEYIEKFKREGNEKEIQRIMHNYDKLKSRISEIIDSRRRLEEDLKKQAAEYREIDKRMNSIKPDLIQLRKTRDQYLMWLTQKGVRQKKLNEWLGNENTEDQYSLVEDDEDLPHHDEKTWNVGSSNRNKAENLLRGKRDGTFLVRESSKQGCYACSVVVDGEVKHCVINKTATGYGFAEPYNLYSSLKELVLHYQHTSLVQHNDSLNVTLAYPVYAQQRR

Row | Compound | IC50 [nM]
1 | CC(Nc1ncnc2[nH]cnc12)c1cc2cccc(Cl)c2c(CN2CCN(S(C)(=O)=O)CC2)n1 (stereo not shown) [Compound 59] | > 10000
2 | C[C@H](Nc1ncnc2[nH]cnc12)c1cc2cccc(Cl)c2c(N2CCOCC2)n1 [Compound 62] | > 10000
3 | C[C@H](Nc1ncnc2[nH]cnc12)c1cc2cccc(Cl)c2c(OCCN2CCOCC2)n1 [Compound 65] | < 10000
4 | Nc1ncnc2c1c(-c1cn[nH]c1)nn2Cc1cc2cccc(Cl)c2c(N2CCOCC2)n1 [Compound 66] | < 10000
5 | CS(=O)(=O)N1CCN(c2nc(Cn3nc(-c4cn[nH]c4)c4c(N)ncnc43)cc3cccc(Cl)c23)CC1 [Compound 67] | < 10000

Results, then the compound that gave them:

Row | IC50 [nM] | Compound
6 | > 10000 | CS(=O)(=O)N1CCC(Oc2nc(Cn3nc(-c4cn[nH]c4)c4c(N)ncnc43)cc3cccc(Cl)c23)CC1 [Compound 58]
7 | > 10000 | C[C@H](Nc1ncnc2[nH]cnc12)c1cc2cccc(Cl)c2c(OC2CCN(S(C)(=O)=O)CC2)n1 [Compound 60]
8 | > 10000 | Cc1cccc2cc([C@H](C)Nc3ncnc4[nH]cnc34)nc(OC3CCN(S(C)(=O)=O)CC3)c12 [Compound 61]
9 | > 10000 | C[C@H](Nc1ncnc2[nH]cnc12)c1cc2cccc(Cl)c2c(N2CCCC2)n1 [Compound 63]
10 | < 10000 | Nc1ncnc2c1c(-c1cn[nH]c1)nn2Cc1cc2cccc(Cl)c2c(N2CCCC2)n1 [Compound 68]

What follows are compounds tested against T2, PI3K δ (Homo sapiens, UniProt O00329) (assay: In vitro IC50, PI3K δ (p110δ/p85α inhibition assay)). Settings: in vitro kinase assay; read-out: IC50(nM) PI3K δ.
T2 construct: purchased Upstate
Assay type: biochemical
Protocol: as §1, §2

T2 sequence (O00329 whole entry): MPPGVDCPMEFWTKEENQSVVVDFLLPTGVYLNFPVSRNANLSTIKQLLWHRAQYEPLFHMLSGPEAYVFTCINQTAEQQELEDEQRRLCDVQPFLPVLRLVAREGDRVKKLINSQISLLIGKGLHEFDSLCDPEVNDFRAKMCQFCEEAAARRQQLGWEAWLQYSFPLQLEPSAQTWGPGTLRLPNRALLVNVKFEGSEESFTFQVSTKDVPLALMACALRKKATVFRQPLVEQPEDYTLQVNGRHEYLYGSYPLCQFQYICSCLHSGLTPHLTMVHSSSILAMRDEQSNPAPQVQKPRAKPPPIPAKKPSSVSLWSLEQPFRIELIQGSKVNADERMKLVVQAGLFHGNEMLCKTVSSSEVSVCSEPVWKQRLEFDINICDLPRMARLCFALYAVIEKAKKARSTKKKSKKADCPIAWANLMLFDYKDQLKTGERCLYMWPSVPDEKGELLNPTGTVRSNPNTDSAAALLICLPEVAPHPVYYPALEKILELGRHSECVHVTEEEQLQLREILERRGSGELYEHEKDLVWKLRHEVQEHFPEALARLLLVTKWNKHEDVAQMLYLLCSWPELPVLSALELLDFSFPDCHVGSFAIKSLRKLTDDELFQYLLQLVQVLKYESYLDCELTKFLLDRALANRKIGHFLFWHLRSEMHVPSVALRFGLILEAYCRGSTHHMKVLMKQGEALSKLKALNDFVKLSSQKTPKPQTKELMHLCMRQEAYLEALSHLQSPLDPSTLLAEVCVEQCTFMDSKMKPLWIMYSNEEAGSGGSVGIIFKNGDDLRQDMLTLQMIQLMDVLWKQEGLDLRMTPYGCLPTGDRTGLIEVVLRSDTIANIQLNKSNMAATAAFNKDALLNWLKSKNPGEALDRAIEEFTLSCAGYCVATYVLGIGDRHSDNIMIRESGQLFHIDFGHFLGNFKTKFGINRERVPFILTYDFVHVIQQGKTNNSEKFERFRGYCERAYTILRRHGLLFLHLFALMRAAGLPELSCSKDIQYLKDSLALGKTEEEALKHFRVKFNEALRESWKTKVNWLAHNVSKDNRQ
T2 sequence (P27986 whole entry partner): as the sequence (P27986 whole entry partner) above

Row | Compound | IC50 [nM]
11 | CC(Nc1ncnc2[nH]cnc12)c1cc2cccc(Cl)c2c(CN2CCN(S(C)(=O)=O)CC2)n1 (stereo not shown) [Compound 59] | < 1000
12 | C[C@H](Nc1ncnc2[nH]cnc12)c1cc2cccc(Cl)c2c(N2CCOCC2)n1 [Compound 62] | < 1000
13 | C[C@H](Nc1ncnc2[nH]cnc12)c1cc2cccc(Cl)c2c(OCCN2CCOCC2)n1 [Compound 65] | < 100
14 | Nc1ncnc2c1c(-c1cn[nH]c1)nn2Cc1cc2cccc(Cl)c2c(N2CCOCC2)n1 [Compound 66] | < 100
15 | CS(=O)(=O)N1CCN(c2nc(Cn3nc(-c4cn[nH]c4)c4c(N)ncnc43)cc3cccc(Cl)c23)CC1 [Compound 67] | < 100

Now from value to compound:

Row | IC50 [nM] | Compound
16 | < 1000 | CS(=O)(=O)N1CCC(Oc2nc(Cn3nc(-c4cn[nH]c4)c4c(N)ncnc43)cc3cccc(Cl)c23)CC1 [Compound 58]
17 | < 1000 | C[C@H](Nc1ncnc2[nH]cnc12)c1cc2cccc(Cl)c2c(OC2CCN(S(C)(=O)=O)CC2)n1 [Compound 60]
18 | < 1000 | Cc1cccc2cc([C@H](C)Nc3ncnc4[nH]cnc34)nc(OC3CCN(S(C)(=O)=O)CC3)c12 [Compound 61]
19 | < 100 | C[C@H](Nc1ncnc2[nH]cnc12)c1cc2cccc(Cl)c2c(N2CCCC2)n1 [Compound 63]
20 | < 100 | Nc1ncnc2c1c(-c1cn[nH]c1)nn2Cc1cc2cccc(Cl)c2c(N2CCCC2)n1 [Compound 68]

These compounds were tested on Balb/c splenic B cells (assay: B cell activation and proliferation assay (Alamar Blue)). Settings: Mus musculus, read-out: B cell proliferation EC50.
Assay type: cell-based
Protocol: The ability of one or more subject compounds to inhibit B cell activation and proliferation is determined according to standard procedures known in the art. For example, an in vitro cellular proliferation assay is established that measures the metabolic activity of live cells. The assay is performed in a 96 well microtiter plate using Alamar Blue reduction. Balb/c splenic B cells are purified over a Ficoll-Paque™ PLUS gradient followed by magnetic cell separation using a MACS B cell Isolation Kit (Miletenyi). Cells are plated in 90 ul at 50,000 cells/well in B Cell Media (RPMI+10% FBS+Penn/Strep+50 uM bME+5 mM HEPES). A compound disclosed herein is diluted in B Cell Media and added in a 10 ul volume. Plates are incubated for 30 min at 37 C and 5% CO2 (0.2% DMSO final concentration). A 50 ul B cell stimulation cocktail is then added containing either 10 ug/ml LPS or 5 ug/ml F(ab′)2 Donkey anti-mouse IgM plus 2 ng/ml recombinant mouse IL4 in B Cell Media. Plates are incubated for 72 hours at 37° C. and 5% CO2. A volume of 15 uL of Alamar Blue reagent is added to each well and plates are incubated for 5 hours at 37 C and 5% CO2. Alamar Blue fluoresce is read at 560Ex/590Em, and IC50 or EC50 values are calculated using GraphPad Prism 5.

Row | Compound | EC50 [nM]
21 | CS(=O)(=O)N1CCC(Oc2nc(Cn3nc(-c4cn[nH]c4)c4c(N)ncnc43)cc3cccc(Cl)c23)CC1 [Compound 58] | < 1000
22 | CC(Nc1ncnc2[nH]cnc12)c1cc2cccc(Cl)c2c(CN2CCN(S(C)(=O)=O)CC2)n1 (stereo not shown) [Compound 59] | < 1000
23 | C[C@H](Nc1ncnc2[nH]cnc12)c1cc2cccc(Cl)c2c(OC2CCN(S(C)(=O)=O)CC2)n1 [Compound 60] | < 1000
24 | Cc1cccc2cc([C@H](C)Nc3ncnc4[nH]cnc34)nc(OC3CCN(S(C)(=O)=O)CC3)c12 [Compound 61] | < 1000
25 | C[C@H](Nc1ncnc2[nH]cnc12)c1cc2cccc(Cl)c2c(N2CCOCC2)n1 [Compound 62] | < 1000
26 | C[C@H](Nc1ncnc2[nH]cnc12)c1cc2cccc(Cl)c2c(N2CCCC2)n1 [Compound 63] | < 1000
27 | C[C@H](Nc1ncnc2[nH]cnc12)c1cc2cccc(Cl)c2c(OCCN2CCOCC2)n1 [Compound 65] | < 100
28 | Nc1ncnc2c1c(-c1cn[nH]c1)nn2Cc1cc2cccc(Cl)c2c(N2CCOCC2)n1 [Compound 66] | < 100
29 | CS(=O)(=O)N1CCN(c2nc(Cn3nc(-c4cn[nH]c4)c4c(N)ncnc43)cc3cccc(Cl)c23)CC1 [Compound 67] | < 1000
30 | Nc1ncnc2c1c(-c1cn[nH]c1)nn2Cc1cc2cccc(Cl)c2c(N2CCCC2)n1 [Compound 68] | < 1000

What follows are compounds tested against T3, PI3K γ (Homo sapiens, UniProt P48736) (assay: In vitro IC50, PI3K γ (p110γ inhibition assay)). Settings: in vitro kinase assay.
T3 construct: purchased Sigma
Assay type: biochemical
Protocol: as §1, with “Class I PI3-Ks can be either purchased (p110α/p85α, p110β/p85α, p110δ/p85α from Upstate, and p110γ from Sigma) or expressed as previously described (Knight et al., 2004). IC50” for “IC50”, “quantitated. For each compound, kinase activity is measured at 10-12 inhibitor concentrations representing two-fold dilutions from the highest concentration tested (typically, 200 μM).” for “quantitated.”
as §2

T3 sequence (P48736 whole entry): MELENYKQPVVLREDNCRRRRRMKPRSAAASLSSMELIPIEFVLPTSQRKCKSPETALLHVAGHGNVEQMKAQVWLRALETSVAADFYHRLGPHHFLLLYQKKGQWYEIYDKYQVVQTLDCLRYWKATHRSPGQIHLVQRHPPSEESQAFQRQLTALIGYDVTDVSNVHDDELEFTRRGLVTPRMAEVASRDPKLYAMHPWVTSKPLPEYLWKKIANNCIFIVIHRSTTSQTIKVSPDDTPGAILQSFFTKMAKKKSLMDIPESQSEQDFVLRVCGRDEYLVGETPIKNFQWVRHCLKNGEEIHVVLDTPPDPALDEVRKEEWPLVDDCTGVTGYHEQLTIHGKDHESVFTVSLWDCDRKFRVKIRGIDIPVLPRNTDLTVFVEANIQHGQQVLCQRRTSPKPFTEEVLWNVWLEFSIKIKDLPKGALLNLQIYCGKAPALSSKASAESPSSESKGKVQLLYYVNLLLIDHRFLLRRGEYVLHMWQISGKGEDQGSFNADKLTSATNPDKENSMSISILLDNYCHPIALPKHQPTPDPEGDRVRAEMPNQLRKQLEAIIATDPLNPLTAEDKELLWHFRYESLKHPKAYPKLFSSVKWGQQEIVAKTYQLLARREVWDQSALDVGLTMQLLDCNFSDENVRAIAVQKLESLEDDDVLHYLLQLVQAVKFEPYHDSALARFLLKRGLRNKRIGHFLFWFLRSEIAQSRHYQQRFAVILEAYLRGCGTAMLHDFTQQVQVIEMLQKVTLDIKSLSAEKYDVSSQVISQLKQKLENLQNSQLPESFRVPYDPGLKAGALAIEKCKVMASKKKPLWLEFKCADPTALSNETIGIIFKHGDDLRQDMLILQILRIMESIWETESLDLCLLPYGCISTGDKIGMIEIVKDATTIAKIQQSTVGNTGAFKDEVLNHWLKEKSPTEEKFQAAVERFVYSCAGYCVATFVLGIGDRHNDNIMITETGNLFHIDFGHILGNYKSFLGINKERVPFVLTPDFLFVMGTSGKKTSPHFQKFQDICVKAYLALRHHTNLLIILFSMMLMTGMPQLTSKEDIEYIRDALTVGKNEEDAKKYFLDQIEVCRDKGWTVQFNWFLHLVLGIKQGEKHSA

Row | Compound | IC50 [nM]
31 | CC(Nc1ncnc2[nH]cnc12)c1cc2cccc(Cl)c2c(CN2CCN(S(C)(=O)=O)CC2)n1 (stereo not shown) [Compound 59] | > 10000
32 | C[C@H](Nc1ncnc2[nH]cnc12)c1cc2cccc(Cl)c2c(N2CCOCC2)n1 [Compound 62] | < 10000
33 | C[C@H](Nc1ncnc2[nH]cnc12)c1cc2cccc(Cl)c2c(OCCN2CCOCC2)n1 [Compound 65] | < 1000
34 | Nc1ncnc2c1c(-c1cn[nH]c1)nn2Cc1cc2cccc(Cl)c2c(N2CCOCC2)n1 [Compound 66] | < 1000
35 | CS(=O)(=O)N1CCN(c2nc(Cn3nc(-c4cn[nH]c4)c4c(N)ncnc43)cc3cccc(Cl)c23)CC1 [Compound 67] | < 1000

The remaining lines, values ahead:

Row | IC50 [nM] | Compound
36 | > 10000 | CS(=O)(=O)N1CCC(Oc2nc(Cn3nc(-c4cn[nH]c4)c4c(N)ncnc43)cc3cccc(Cl)c23)CC1 [Compound 58]
37 | < 10000 | C[C@H](Nc1ncnc2[nH]cnc12)c1cc2cccc(Cl)c2c(OC2CCN(S(C)(=O)=O)CC2)n1 [Compound 60]
38 | < 10000 | Cc1cccc2cc([C@H](C)Nc3ncnc4[nH]cnc34)nc(OC3CCN(S(C)(=O)=O)CC3)c12 [Compound 61]
39 | < 10000 | C[C@H](Nc1ncnc2[nH]cnc12)c1cc2cccc(Cl)c2c(N2CCCC2)n1 [Compound 63]
40 | < 1000 | Nc1ncnc2c1c(-c1cn[nH]c1)nn2Cc1cc2cccc(Cl)c2c(N2CCCC2)n1 [Compound 68]

Source: patent US9315505B2, “Heterocyclic compounds and uses thereof” (INTELLIKINE LLC, priority 2009, dated 2016)
